One compound from patent US20180256914A1, “COMPOSITIONS AND METHODS FOR THE TREATMENT OF MUCOSITIS ASSOCIATED WITH TREATMENT-INDUCED NEUTROPENIA” (KLOX TECHNOLOGIES INC., priority 2015, published 2018) can be followed below.

Series [1] is described as follows: Neutralisation by Trolox of ROS produced by gel containing 12% urea peroxide. The settings on record: 2 mM Trolox; FIG. 2.
A further series deals with P. aeruginosa. It counts as cell-based, Pseudomonas aeruginosa. The conditions noted are these: Trolox at concentrations above 2 mM; data not shown.

SMILES strings stand for the structures.

In the case of `Cc1c(C)c2c(c(C)c1O)CCC(C)(C(=O)O)O2` (centres unmarked) [Trolox], in series [1], the “neutralization of ROS produced by the gel containing 12% urea peroxide” value was “neutralize the ROS”. Further, the “cytotoxicity to P. aeruginosa” value with P. aeruginosa is “not to be cytotoxic”.
